Consider one compound from publication PMC11172460 (International Journal of Molecular Sciences, 2024).

Data set [1] in a line: Hydrolysis kinetics in rat liver homogenates. It counts as in vitro ADME. Here is the method: Livers were obtained from male Wistar rats, which were sacrificed by decapitation, after a slight isoflurane anesthesia. The livers were immediately isolated, and, after washing with ice-cold saline solution, they were homogenized in 4 volumes (w/v) of Tris HCl (50 mM, pH 7.4, 4 °C) by using a Potter–Elvehjem apparatus. The supernatant obtained after centrifugation (2000× g for 10 min at 4 °C) was decanted off and stored at −80 °C before its use for kinetic studies.
Kinetic analysis of Fer-Ger was performed by its incubation at 37 °C in 3 mL of rat liver or brain homogenates at 30 µM (9.92 µg/mL) final concentration. At defined time intervals, 100 μL of homogenates were withdrawn and immediately treated by quenching them in EtOH (250 µL), then an internal standard (100 μM carbazole dissolved in EtOH, 50 µL) was added. The samples were centrifuged (13,500× g for 10 min), and the 300 μL aliquots were reduced to dryness under a nitrogen stream. […]
The Fer-Ger degradation in whole blood or homogenates was analyzed as exponential decay plots of its concentrations versus incubation time, and the related half-life values were obtained from the linear regression of the corresponding semi-logarithmic plots. The quality of the fits was evaluated by considering the correlation coefficients (r) and p values. […]
Fer-Ger and its hydrolysis product, Ger, were quantified by HPLC. […]

Data set [2] deals with differentiated N2a cells. Put plainly: DCFH-DA assay of intracellular ROS production. It counts as cell-based, mouse. Here is the method: N2a cells were seeded on T75 flasks and grown in Dulbecco’s Modified Eagle Medium (DMEM) containing Glutamax, supplemented with 100 μg/mL streptomycin, 100 IU/mL penicillin, and 10% fetal bovine serum (FBS) in a humidified 5% CO2 atmosphere at 37 °C. After two passages by trypsinization, cells were seeded at a density of 5 × 10^3 cells/well in 12-well plates with 2 mL of DMEM or at a density of 5 × 10^2 cells/well in 96-well plates with 0.2 mL of DMEM, depending on the study (see below). For neural differentiation, N2a cells were allowed to adhere and proliferate in wells for 4 days; then, after washing once with serum-free DMEM, differentiating medium composed of DMEM containing 1% HS and 20 μM all-trans-retinoic acid (atRA) was added in both the seeding conditions, up to 6 days of differentiation, after which the cells were used for the experiments.
The potential antioxidant effect of Fer-Ger was evaluated according to the original method of Wang and Joseph. In this method, the nonpolar 2′,7′-dichlorofluorescin diacetate (DCFH-DA) enters the intact cells and is hydrolyzed by intracellular esterases to nonfluorescent DCFH carboxylate anion, which remains entrapped and becomes the high fluorescent dichlorofluorescin (DCF) after oxidation by free radicals generated by a stressor, such as H2O2. Therefore, H2O2-induced intracellular ROS production was measured in N2a cells by a florescence intensity assay following exposure to the oxidation-sensitive dye DCFH-DA. N2a cells were seeded at a density of 1 × 10^4 cells/well in a black-coated and clear bottom 96-well plate and neuron-differentiated as reported above. After 6 days, differentiating medium in N2a cells was replaced with pre-warmed phenol-red-free and serum-free DMEM containing 10 µM DCFH-DA and incubated for 30 min in the dark in a humidified 5% CO2 atmosphere at 37 °C. The 10 µM DCFH-DA loading solution was then removed, and the cells were washed twice with fresh phenol-red-free and serum-free DMEM to remove the redundant extracellular DCFH-DA probe. Subsequently, N2a cells were incubated with pre-warmed phenol-red free DMEM containing 1% FBS as an untreated control and with solutions dissolved in phenol-red free DMEM containing 1% FBS of Fer-Ger (1, 5, or 10 µM) or 100 µM ascorbic acid (AA, as an established antioxidant positive control) and incubated for 1 h in a humidified 5% CO2 atmosphere at 37 °C. After this time, 100 µM H2O2 was added in the absence or presence of 1, 5 or 10 µM Fer-Ger or 100 µM AA, and the fluorescence intensity was measured at an excitation wavelength of 485 nm and at an emission wavelength of 530 nm, monitoring the oxidation of DCFH to DCF by the intracellular ROS by running the kinetic over 75 min in a fluorescence microplate reader (VICTOR^3TM 1420 Multilabel counter, PerkinElmer, Milan, Italy). Results were represented as a percentage of intracellular ROS production (100% of control) resulting from the mean values ± SEM of sextuplicate wells over time.

Data set [3] in a line: Hydrolysis in rat liver homogenates of free or SLM-encapsulated Fer-Ger. It counts as in vitro ADME. The method, then:
Since SLMs were suspended in the medium, it was difficult to withdraw several homogeneous samples, and consequently, stability was assessed by a single sampling after 10 min of incubation. Dichloromethane (1 mL) was added, and 250 μL was withdrawn from the samples and quenched in 500 μL of ice-cold ethanol added with 100 μL of internal standard (100 μM carbazole dissolved in ethanol). After 5 min of centrifugation at 16,000× g, 600 μL aliquots were reduced to dryness under a nitrogen stream. […] The same procedure was adopted for free Fer-Ger by adding appropriate amounts of stock solution in DMSO to a volume of 3 mL of rat liver homogenates in order to obtain the final concentration of 30 µM (9.92 µg/mL). In this case, the Fer-Ger hydrolysis was analyzed both in the absence or in the presence of unloaded Ts SLMs or Ts-glu SLMs, whose amounts were equivalent to those of their parent-loaded FG Ts SLMs or FG Ts-glu SLMs, respectively. All the values obtained are the means of four independent experiments.

What is called half-life is the time needed for the level to fall by half in the phase considered. High values mean slow loss, low ones fast loss. Consider `COc1cc(/C=C/C(=O)OC/C=C(\C)CCC=C(C)C)ccc1O` [Fer-Ger, Geranyl ferulate], for which the “time to complete hydrolysis” value in data set [1] is listed as “about 30 min”. In data set [1] (male, Wistar, liver homogenate, pH 7.4, 37 °C, 30 µM, pseudo-first-order kinetic), this compound gave a half-life at 30 µM of 3.94 ± 0.33 min. The “effect on basal ROS production” value in data set [2] (Fer-Ger 1, 5 and 10 µM alone, 75 min) is on record as “did not affect the ROS production”. Besides, the “effect on H2O2-induced ROS production” value in data set [2] (Fer-Ger 1, 5 and 10 µM with 100 µM H2O2, all times tested, p < 0.05) was “increased the H2O2-induced ROS production”. Further, the “hydrolysis rate in the presence of unloaded SLMs” value in data set [3] (free Fer-Ger in rat liver homogenates with unloaded SLMs) is “substantially unaffected”. The prodrug hydrolyzed result in data set [3] (free solubilized prodrug, 10 min incubation in rat liver homogenates, about 30 μM) is given as “about 90%”.
